The test system of one data set is Cabbage Looper (CL). Put plainly: Bioassays on CL, 128-well diet tray assay. The format is in vivo. The following applies: Trichoplusia ni; for mortality at 50 µg/cm2: 168 h, read-out: CL % Control (or Mortality) rating; for mortality at 0.05 µg/cm2: 0.05 μg/cm^2; for mortality at 0.05 µg/cm2 / mortality at 0.5 µg/cm2 / mortality at 5 µg/cm2: read-out: CL Percent control (or mortality); for mortality at 0.5 µg/cm2: 0.5 μg/cm^2; for mortality at 5 µg/cm2: 5 μg/cm^2. A digest of the protocol: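 Second-instar larvae, one to five per well, were placed on artificial diet treated with 50 μg/cm^2 compound (in 90:10 acetone-water) and dried, with eight wells per compound. Trays were held at 25° C, 14:10 light-dark, for five to seven days. Percent mortality was scored per well and averaged.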

For a further data set, the system named is Green Peach Aphid (GPA). Put plainly: Bioassays on Green Peach Aphid, cabbage seedling foliar spray. The format is in vivo. The following applies: Myzus persicae, 72 h, read-out: GPA % Control (or Mortality) rating. How it is done:
Cabbage seedlings grown in 3-inch pots, with 2-3 small (3-5 cm) true leaves, were used as test substrate. The seedlings were infested with 20-50 GPA (wingless adult and nymph stages) one day prior to chemical application. Four pots with individual seedlings were used for each treatment. Test compounds (2 mg) were dissolved in 2 mL of acetone/MeOH (1:1) solvent, forming stock solutions of 1000 ppm test compound. The stock solutions were diluted 5× with 0.025% Tween 20 in water to obtain the solution at 200 ppm test compound. A hand-held aspirator-type sprayer was used for spraying a solution to both sides of […] leaves until runoff. Reference plants (solvent check) were sprayed with the diluent only containing 20% by volume of acetone/MeOH (1:1) solvent. Treated plants were held in a holding room for three days at approximately 25° C. and ambient relative humidity (RH) prior to grading. Evaluation was conducted by counting the number of live aphids per plant under a microscope. Percent Control was measured by using Abbott's correction formula (W. S. Abbott, “A Method of Computing the Effectiveness of an Insecticide” J. Econ. Entomol. 18 (1925), pp. 265-267) as follows. Corrected % Control=100*(X−Y)/X where X=No. of live aphids on solvent check plants and Y=No. of live aphids on treated plants. The results are indicated in the table entitled “Table ABC: Assay Results (F)” and “Table ABCD: Assay Results (C)” (See Table Section).

The next data set relates to Beet Armyworm (BAW). Put plainly: Bioassays on BAW, 128-well diet tray assay. The following applies: Spodoptera exigua; for mortality at 50 µg/cm2: 168 h, read-out: BAW % Control (or Mortality) rating; for mortality at 0.05 µg/cm2: 0.05 μg/cm^2; for mortality at 0.05 µg/cm2 / mortality at 0.5 µg/cm2 / mortality at 5 µg/cm2: read-out: BAW Percent control (or mortality); for mortality at 0.5 µg/cm2: 0.5 μg/cm^2; for mortality at 5 µg/cm2: 5 μg/cm^2. It counts as in vivo. A digest of the protocol:
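Test compound was applied at 50 μg/cm^2 in 90:10 acetone-water to the artificial diet surface and dried, with eight wells per compound. One to five second-instar beet armyworm larvae were placed per well and held at 25 °C, 14:10 light-dark, for five to seven days. Percent mortality was averaged over the wells.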

The test system of data set [1] is Yellow Fever Mosquito (YFM). The format is in vivo, Aedes aegypti. The following applies: 15 μL of diluted 4000 ppm master solution per well, about 1 day-old larvae, 3 days. The method, then: Master plates containing 400 μg of a molecule dissolved in 100 μL of dimethyl sulfoxide (DMSO) (equivalent to a 4000 ppm solution) are used. A master plate of assembled molecules contains 15 μL per well. To this plate, 135 μL of a 90:10 water:acetone mixture is added to each well. A robot (Biomek® NXP Laboratory Automation Workstation) is programmed to dispense 15 μL aspirations from the master plate into an empty 96-well shallow plate (“daughter” plate). There are 6 reps (“daughter” plates) created per master. The created daughter plates are then immediately infested with YFM larvae. The day before plates are to be treated, mosquito eggs are placed in Millipore water containing liver powder to begin hatching (4 g. into 400 mL). After the daughter plates are created using the robot, they are infested with 220 μL of the liver powder/larval mosquito mixture (about 1 day-old larvae). After plates are infested with mosquito larvae, a non-evaporative lid is used to cover the plate to reduce drying. Plates are held at room temperature for 3 days prior to grading. After 3 days, each well is observed and scored based on mortality. The results are indicated in the table entitled “Table ABC: Assay Results (F)” and “Table ABCD: Assay Results (C)” (See Table Section). Pesticidally Acceptable Acid Addition Salts, Salt Derivatives, Solvates, Ester Derivatives, Polymorphs, Isotopes and Radionuclides

[2] abbreviates: 50 μg/cm^2 on artificial diet, second instar larvae, five to seven days, 25° C.
Where [3] appears, read: 200 ppm foliar spray on cabbage seedlings, three days, Abbott corrected % control.

Structures are written as SMILES. Read-outs that look alike come from different tables or passages of the source.

Regarding `CN(CCNC(=O)c1ccc(/C=C/C(c2cc(Cl)c(Cl)c(Cl)c2)C(F)(F)F)cc1C(F)(F)F)C(=O)OC(C)(C)C` (centres unmarked) [Compound C113, (E)-tert-butyl methyl(2-(4-(4,4,4-trifluoro-3-(3,4,5-trichlorophenyl)but-1-en-1-yl)-2-(trifluoromethyl)benzamido)ethyl)carbamate], the mortality at 50 µg/cm2 with Cabbage Looper (CL) and in the data set on Beet Armyworm (BAW) was 50 to 100% throughout. The mortality – broadly, the percentage killed – at 200 ppm with Green Peach Aphid (GPA) (foliar) was found to be 0%. For the same molecule, the “YFM % Control (or Mortality) rating” value in data set [1] was “A (80-100)”.

Turning to `C[C@H](NC(=O)CC(F)(F)F)NC(=O)c1ccc(/C=C/C(c2cc(Cl)c(Cl)c(Cl)c2)C(F)(F)F)cc1C(F)(F)F` (stereo partly drawn) [Compound F2, 4-((E)-4,4,4-trifluoro-3-(3,4,5-trichlorophenyl)but-1-en-1-yl)-2-(trifluoromethyl)-N—((R)-1-(3,3,3-trifluoropropanamido)ethyl)benzamide], the mortality at 50 µg/cm2 with Cabbage Looper (CL) (setting [2]) and with Beet Armyworm (BAW) (setting [2]) was 50 to 100% in each case. The mortality at 0.05 µg/cm2 in the data set with Cabbage Looper (CL) and in the data set on Beet Armyworm (BAW) was 100% throughout. Also, the mortality at 0.5 µg/cm2 in the data set with Cabbage Looper (CL) and in the data set with Beet Armyworm (BAW) was 100% in each case. Besides, the mortality at 5 µg/cm2 with Cabbage Looper (CL) and in the data set with Beet Armyworm (BAW) was 100% each time. For the same molecule, in the data set with Green Peach Aphid (GPA) (setting [3]), the mortality at 200 ppm came to 0%. In addition, in data set [1], the “YFM % Control (or Mortality) rating” value was “A (80-100)”.

`Cc1cc(/C=C/C(c2cc(Cl)c(F)c(Cl)c2)C(F)(F)F)ccc1C(=O)N[C@H](C)NC(=O)CCC(F)(F)F` (stereo partly drawn) [Compound P13, 4-((E)-3-(3,5-Dichloro-4-fluorophenyl)-4,4,4-trifluorobut-1-en-1-yl)-2-methyl-N—((R)-1-(4,4,4-trifluorobutanamido)ethyl)benzamide]: the mortality at 50 µg/cm2 in the data set on Cabbage Looper (CL) (setting [2]) and in the data set with Beet Armyworm (BAW) (setting [2]) was 50 to 100% each time. Also, in data set [1], the “YFM % Control (or Mortality) rating” value is reported as “A (80-100)”.

In the case of `Cc1cc(/C=C/C(c2cc(Br)c(Cl)c(Br)c2)C(F)(F)F)ccc1C(=O)N[C@H](C)NC(=O)CCC(F)(F)F` (stereo partly drawn) [Compound P14, 4-((E)-3-(3,5-Dibromo-4-chlorophenyl)-4,4,4-trifluorobut-1-en-1-yl)-2-methyl-N—((R)-1-(4,4,4-trifluorobutanamido)ethyl)benzamide], the mortality at 50 µg/cm2 in the data set with Cabbage Looper (CL) (setting [2]) and in the data set on Beet Armyworm (BAW) (setting [2]) was 50 to 100% each time. In data set [1], the “YFM % Control (or Mortality) rating” value is on record as “A (80-100)”.

Turning to `C[C@H](NC(=O)CC(F)(F)F)NC(=O)c1ccc(/C=C/C(c2cc(Cl)c(Cl)c(Cl)c2)C(F)(F)F)cc1Br` (some centres unmarked) [Compound P24], the mortality at 50 µg/cm2 in the data set on Cabbage Looper (CL) (setting [2]) and in the data set with Beet Armyworm (BAW) (setting [2]) was 50 to 100% in each case. For the same molecule, the mortality at 0.05 µg/cm2 in the data set with Cabbage Looper (CL) was 6%; in the data set on Beet Armyworm (BAW) it was 0%. Moreover, the results for the mortality at 0.5 µg/cm2 with Cabbage Looper (CL) and in the data set with Beet Armyworm (BAW) were 19% and 7%, respectively. Besides, the mortality at 5 µg/cm2 turned out to be 100% in the data set with Cabbage Looper (CL) and 87% in the data set with Beet Armyworm (BAW). In addition, the “YFM % Control (or Mortality) rating” value in data set [1] is “D (No activity noticed in this bioassay)”.

Turning to `C[C@H](NC(=O)CCC(F)(F)F)NC(=O)c1ccc(/C=C/C(c2cc(Cl)c(Cl)c(Cl)c2)C(F)(F)F)cc1Br` (stereo partly drawn) [Compound P27, 2-Bromo-4-((E)-4,4,4-trifluoro-3-(3,4,5-trichlorophenyl)but-1-en-1-yl)-N—((R)-1-(4,4,4-trifluorobutanamido)ethyl)benzamide], the mortality at 50 µg/cm2 with Cabbage Looper (CL) (setting [2]) and in the data set on Beet Armyworm (BAW) (setting [2]) was 50 to 100% in each case. For the same molecule, the mortality at 0.05 µg/cm2 with Cabbage Looper (CL) and with Beet Armyworm (BAW) was 0% in each case. Besides, the mortality at 0.5 µg/cm2 in the data set with Cabbage Looper (CL) turned out to be 7%; in the data set on Beet Armyworm (BAW), 0%. Further, the mortality at 5 µg/cm2 in the data set on Cabbage Looper (CL) was 100%; with Beet Armyworm (BAW), 7%. The “YFM % Control (or Mortality) rating” value in data set [1] is recorded as “B (More than 0-Less than 80)”.

As to `C[C@@H](NC(=O)c1ccc(/C=C/C(c2cc(Cl)c(Cl)c(Cl)c2)C(F)(F)F)cc1C(F)(F)F)NC(=O)C(C)(C)C(F)(F)F` (stereo partly drawn) [Compound P33, N—((S)-1-(3,3,3-Trifluoro-2,2-dimethylpropanamido)ethyl)-4-((E)-4,4,4-trifluoro-3-(3,4,5-trichlorophenyl)but-1-en-1-yl)-2-(trifluoromethyl)benzamide], the mortality at 50 µg/cm2 with Cabbage Looper (CL) (setting [2]) and in the data set with Beet Armyworm (BAW) (setting [2]) was 50 to 100% in each case. Moreover, in data set [1], the “YFM % Control (or Mortality) rating” value is “A (80-100)”.

Regarding `C[C@H](NC(=O)C[S+](C)[O-])NC(=O)c1ccc(/C=C/C(c2cc(Cl)c(Cl)c(Cl)c2)C(F)(F)F)cc1C(F)(F)F` (stereo partly drawn) [Compound P36, N-((1S)-1-(2-(Methylsulfinyl)acetamido)ethyl)-4-((E)-4,4,4-trifluoro-3-(3,4,5-trichlorophenyl)but-1-en-1-yl)-2-(trifluoromethyl)benzamide], the mortality at 50 µg/cm2 in the data set on Cabbage Looper (CL) (setting [2]) and with Beet Armyworm (BAW) (setting [2]) was 50 to 100% throughout. Further, the mortality at 200 ppm in the data set on Green Peach Aphid (GPA) (setting [3]) was determined as 0%.

In the case of `C[C@H](NC(=O)CC[S+](C)[O-])NC(=O)c1ccc(/C=C/C(c2cc(Cl)c(Cl)c(Cl)c2)C(F)(F)F)cc1C(F)(F)F` (stereo partly drawn) [Compound P49, N-((1R)-1-(3-(methylsulfinyl)propanamido)ethyl)-4-((E)-4,4,4-trifluoro-3-(3,4,5-trichlorophenyl)but-1-en-1-yl)-2-(trifluoromethyl)benzamide], the mortality at 50 µg/cm2 with Cabbage Looper (CL) (setting [2]) and in the data set with Beet Armyworm (BAW) (setting [2]) was 50 to 100% each time. Besides, the mortality at 200 ppm in the data set on Green Peach Aphid (GPA) (setting [3]) was in the range of 0 to 80%.
